In patent US7705013B2, “Use of canthin-6-one, plant extracts containing same and derivatives thereof in the treatment of trypanosomiases” (Institut de Recherche pour le Developpement, priority 2002, dated 2010):

Key:
Trypanosoma cruzi [1] = experiment: In vivo trial on Trypanosoma cruzi in the chronic phase, Balb/c mice: serological evaluation (ELISA)
Text: (§1) The Balb/c-type mice are bred in the animal house of the Health Sciences Research Institute (IICS, Asuncion, Paraguay) and are 6 to 8 weeks old at the time of the experimental protocols. For this experimental protocol, the CL strain (Brener clone) of T. cruzi is used in the circulating form (trypomastigotes), and the strain is maintained in routine culture on an animal model by passage every 14 days. The animals are infected intraperitoneally with 1000 parasites. Under these experimental conditions, the parasites develop slowly; this strain produces a parasite peak 21 to 28 days after infection. The majority of the mice survive (70-80%) with slight deterioration of their general physical condition and with absent or subpatent parasitemia. Each week, the number of parasites is verified by taking a blood sample from the tail of the mouse.
(§2) For this long-duration experiment, the treatments begin 120 days after parasitic infection, when the parasitemia is subpatent in all the mice. The mice are then divided up into groups randomly. The treatments with benznidazole, the reference medicinal product, are administered at a concentration of 50 mg/kg or 200 mM/kg per day for 20 days, orally. Canthin-6-one is administered either orally or subcutaneously at a concentration of 5 mg/kg or 20 mM/kg per day for 20 days. A total dichloromethane extract of Zanthoxylum chiloperone var. angustifolium trunk bark is administered orally or subcutaneously at a concentration of 50 mg/kg per day for 20 days. For administration, the active principles are dissolved in 50 μl of a phosphate buffered saline (PBS) solution. The untreated and infected mice receive 50 μl of PBS.
• Weekly counting of the number of parasites circulating in the peripheral blood throughout the experiment, i.e. […] The serological evaluation is carried out using a Chagas ELISA assay (enzyme linked immunoassay) kit, IISC, Asuncion. The optical densities are measured with an ELISA plate reader (Titerek, Unistan, I). Statistical Studies:
(§3) The mean and the standard deviations of each group are calculated, and the differences between the groups are determined by means of the Student's test and the Kruskal-Wallis non-parametric analysis of variance test. The comparisons are carried out between the untreated group and the treated groups, P<0.05.

Trypanosoma cruzi [2] = experiment: In vivo trial on Trypanosoma cruzi in the acute phase, Balb/c mice: serological evaluation (anti-T. cruzi ELISA); conditions: for 1st serology (anti-T. cruzi ELISA, optical density): 40 days post-infection, 15 days post-treatment; for 2nd serology (anti-T. cruzi ELISA, optical density): 68 days post-infection, 45 days post-treatment
Text: (§4) Animals and parasites: The Balb/c-type mice are bred in the animal house of the Health Sciences Research Institute (IICS, Asuncion, Paraguay) and are 6 to 8 weeks old at the time of the experimental protocols.
(§5) For these trials, the CL strain (Brener clone) of T. cruzi is used in the circulating form of the parasite (trypomastigotes). The animals are infected intraperitoneally with 5000 parasites; this strain produces its parasite peak 21 to 25 days after infection. Each week, the number of parasites is verified by means of a blood sample taken from the tail of the mouse.
(§6) Infection and treatment: The treatments with benznidazole, the reference medicinal product, and canthin-6-one begin 11 days after parasitic infection, at a rate of 50 mg/kg or 200 mM/kg for benznidazole and at the concentration of 5 mg/kg or 20 mM/kg for canthin-6-one. The duration of the treatments is fixed at two weeks and the chosen route of administration is oral for benznidazole and canthin-6-one; furthermore, a group of mice is treated with canthin-6-one administered subcutaneously. The untreated and infected mice are given 100 μl of a phosphate buffered saline solution.
(§7) • weekly counting of the number of parasites circulating in the peripheral blood throughout the experiment, i.e. 10 weeks; • observation of mortality; • two serological evaluations: 40 days post-infection, i.e. 15 days after treatment has been stopped, and 68 days post-infection, i.e. 45 days post-treatment. The serological evaluation is carried out by means of a Chagas ELISA assay (enzyme linked immunoassay) kit, IISC, Asuncion. The optical densities are measured with an ELISA plate reader (Titerek, Unistan, I).
(§8) Statistical studies: The mean and the standard deviations of each group are calculated, the differences between the groups are determined by means of the Student's test and the Kruskal-Wallis non-parametric analysis of variance test. The comparisons are carried out between the nontreated group and the treated groups, P<0.05.

Trypanosoma cruzi [3] = experiment: In vivo trial on Trypanosoma cruzi in the acute phase, Balb/c mice: parasitological evaluation (parasites in peripheral blood)
Text: as §4, §5, §6, §7, §8

Trypanosoma cruzi [4] = experiment: In vivo trial on Trypanosoma cruzi in the chronic phase, Balb/c mice: parasitemia and mortality
Text: as §1
as §2, with “For this long-duration experiment, the treatments begin 120 days after parasitic infection, when the parasitemia is subpatent in all the mice.” left out
• Weekly counting of the number of parasites circulating in the peripheral blood throughout the experiment, i.e. 30 weeks. • Observation of mortality. • Three serological evaluations, 45 days before the beginning of treatments, 10 days after treatment has stopped and 75 days post-treatment. The serological evaluation is carried out using a Chagas ELISA assay (enzyme linked immunoassay) kit, IISC, Asuncion. The optical densities are measured with an ELISA plate reader (Titerek, Unistan, I). Statistical Studies:
as §3

## O=C(Cn1ccnc1[N+](=O)[O-])NCc1ccccc1 [Benznidazole, benznidazole, reference compound]
Trypanosoma cruzi [1]; 10 d post-treatment, 50 mg/kg/d orally
  ELISA (optical density ± standard deviation): 1.712 ± 0.473
Trypanosoma cruzi [1]; 43 days before treatment (baseline), 50 mg/kg/d orally
  ELISA (optical density ± standard deviation): 2.072 ± 0.220
Trypanosoma cruzi [1]; 75 d post-treatment, 50 mg/kg/d orally
  ELISA (optical density ± standard deviation): 1.979 ± 0.350
Trypanosoma cruzi [2]; 50 mg oral
  1st serology (anti-T. cruzi ELISA, optical density): 0.1692 ± 0.1179
  2nd serology (anti-T. cruzi ELISA, optical density): 0.7934 ± 0.8607
Trypanosoma cruzi [3]; 50 mg/kg/d
  eradication of Trypanosoma cruzi from the infected organism, acute phase: does not make it possible to obtain
Trypanosoma cruzi [3]; day 4 post-infection (before treatment), 50 mg/kg oral, two weeks from day 11, n = 8
  number of parasites ± standard deviation: 0
Trypanosoma cruzi [3]; day 11 post-infection (period of treatment), 50 mg/kg oral, n = 8
  number of parasites ± standard deviation: 0
Trypanosoma cruzi [3]; day 18 post-infection (period of treatment), 50 mg/kg oral, n = 8
  number of parasites ± standard deviation: 34.9 ± 98.6
Trypanosoma cruzi [3]; day 25 post-infection (period of treatment), 50 mg/kg oral, n = 8
  number of parasites ± standard deviation: 250.1 ± 503.5
Trypanosoma cruzi [3]; day 32 post-infection, 50 mg/kg oral, two weeks from day 11, n = 8
  number of parasites ± standard deviation: 296.8 ± 625.5
Trypanosoma cruzi [3]; day 39 post-infection, 50 mg/kg oral, two weeks from day 11, n = 8
  number of parasites ± standard deviation: 118.3 ± 192.9
Trypanosoma cruzi [3]; day 45 post-infection, 50 mg/kg oral, two weeks from day 11, n = 8
  number of parasites ± standard deviation: 300.8 ± 431.6
Trypanosoma cruzi [3]; day 53 post-infection, 50 mg/kg oral, two weeks from day 11, n = 8
  number of parasites ± standard deviation: 23.3 ± 65.8
Trypanosoma cruzi [3]; day 60 post-infection, 50 mg/kg oral, two weeks from day 11, n = 8
  number of parasites ± standard deviation: 65.3 ± 93.2
Trypanosoma cruzi [3]; day 68 post-infection, 50 mg/kg oral, two weeks from day 11, n = 8
  number of parasites ± standard deviation: 9.4 ± 26.5
Trypanosoma cruzi [4]; 0 days post-treatment, 50 mg/kg/d orally for 20 days
  Negative parasitemia/number of surviving mice: 5/5
Trypanosoma cruzi [4]; 10 d post-treatment, 50 mg/kg/d orally for 20 days
  Negative parasitemia/number of surviving mice: 2/5
Trypanosoma cruzi [4]; 40 d post-treatment, 50 mg/kg/d orally for 20 days
  Negative parasitemia/number of surviving mice: 5/5
Trypanosoma cruzi [4]; 60 d post-treatment, 50 mg/kg/d orally for 20 days
  Negative parasitemia/number of surviving mice: 5/5

## O=c1ccc2nccc3c4ccccc4n1c23 [canthin-6-one]
Trypanosoma cruzi [1]; 10 d post-treatment, 5 mg/kg orally
  ELISA (optical density ± standard deviation): 1.621 ± 0.547
Trypanosoma cruzi [1]; 10 d post-treatment, 5 mg/kg/d subcutaneously
  ELISA (optical density ± standard deviation): 1.850 ± 0.405
Trypanosoma cruzi [1]; 43 days before treatment (baseline), 5 mg/kg orally
  ELISA (optical density ± standard deviation): 1.878 ± 0.348
Trypanosoma cruzi [1]; 43 days before treatment (baseline), 5 mg/kg/d subcutaneously
  ELISA (optical density ± standard deviation): 1.916 ± 0.368
Trypanosoma cruzi [1]; 75 d post-treatment, 5 mg/kg orally
  ELISA (optical density ± standard deviation): 1.799 ± 0.333
Trypanosoma cruzi [1]; 75 d post-treatment, 5 mg/kg/d subcutaneously
  ELISA (optical density ± standard deviation): 1.870 ± 0.268
Trypanosoma cruzi [2]; 5 mg SC
  1st serology (anti-T. cruzi ELISA, optical density): 0.2151 ± 0.1447
  2nd serology (anti-T. cruzi ELISA, optical density): 0.1347 ± 0.6327
Trypanosoma cruzi [2]; 5 mg oral
  1st serology (anti-T. cruzi ELISA, optical density): 0.1105 ± 0.0387
  2nd serology (anti-T. cruzi ELISA, optical density): 0.3953 ± 0.7531
Trypanosoma cruzi [3]; activity assays, general statement
  effective dose against Trypanosoma cruzi relative to benznidazole: doses ten times lower than the doses at which benznidazole is effective
Trypanosoma cruzi [3]; day 4 post-infection (before treatment), 5 mg/kg oral, two weeks from day 11, n = 7
  number of parasites ± standard deviation: 0
Trypanosoma cruzi [3]; day 4 post-infection (before treatment), 5 mg/kg subcutaneous, two weeks from day 11, n = 8
  number of parasites ± standard deviation: 0
Trypanosoma cruzi [3]; day 11 post-infection (period of treatment), 5 mg/kg oral, n = 7
  number of parasites ± standard deviation: 0
Trypanosoma cruzi [3]; day 11 post-infection (period of treatment), 5 mg/kg subcutaneous, n = 8
  number of parasites ± standard deviation: 0
Trypanosoma cruzi [3]; day 18 post-infection (period of treatment), 5 mg/kg oral, n = 7
  number of parasites ± standard deviation: 285 ± 515.9
Trypanosoma cruzi [3]; day 18 post-infection (period of treatment), 5 mg/kg subcutaneous, n = 8
  number of parasites ± standard deviation: 766.3 ± 719.2
Trypanosoma cruzi [3]; day 25 post-infection (period of treatment), 5 mg/kg oral, n = 7
  number of parasites ± standard deviation: 402 ± 837.7
Trypanosoma cruzi [3]; day 25 post-infection (period of treatment), 5 mg/kg subcutaneous, n = 8
  number of parasites ± standard deviation: 88.4 ± 142.9
Trypanosoma cruzi [3]; day 32 post-infection, 5 mg/kg oral, two weeks from day 11, n = 7
  number of parasites ± standard deviation: 426.2 ± 664.5
Trypanosoma cruzi [3]; day 32 post-infection, 5 mg/kg subcutaneous, two weeks from day 11, n = 8
  number of parasites ± standard deviation: 267.5 ± 546.5
Trypanosoma cruzi [3]; day 39 post-infection, 5 mg/kg oral, two weeks from day 11, n = 7
  number of parasites ± standard deviation: 36.6 ± 58.4
Trypanosoma cruzi [3]; day 39 post-infection, 5 mg/kg subcutaneous, two weeks from day 11, n = 8
  number of parasites ± standard deviation: 2077.1 ± 2214.2
Trypanosoma cruzi [3]; day 45 post-infection, 5 mg/kg oral, two weeks from day 11, n = 7
  number of parasites ± standard deviation: 34.4 ± 76.9
Trypanosoma cruzi [3]; day 45 post-infection, 5 mg/kg subcutaneous, two weeks from day 11, n = 8
  number of parasites ± standard deviation: 314.1 ± 499.3
Trypanosoma cruzi [3]; day 53 post-infection, 5 mg/kg oral, two weeks from day 11, n = 7
  number of parasites ± standard deviation: 58.4 ± 80.6
Trypanosoma cruzi [3]; day 53 post-infection, 5 mg/kg subcutaneous, two weeks from day 11, n = 8
  number of parasites ± standard deviation: 473.4 ± 921.9
Trypanosoma cruzi [3]; day 60 post-infection, 5 mg/kg oral, two weeks from day 11, n = 7
  number of parasites ± standard deviation: 16 ± 35.8
Trypanosoma cruzi [3]; day 60 post-infection, 5 mg/kg subcutaneous, two weeks from day 11, n = 8
  number of parasites ± standard deviation: 129.9 ± 194.4
Trypanosoma cruzi [3]; day 68 post-infection, 5 mg/kg oral, two weeks from day 11, n = 7
  number of parasites ± standard deviation: 0
Trypanosoma cruzi [3]; day 68 post-infection, 5 mg/kg subcutaneous, two weeks from day 11, n = 8
  number of parasites ± standard deviation: 34.9 ± 98.6
Trypanosoma cruzi [3]; orally 5 mg/kg/d
  eradication of Trypanosoma cruzi from the infected organism, acute phase: complete eradication of Trypanosoma cruzi from the infected organism
Trypanosoma cruzi [3]; orally 5 mg/kg/d, from the 39th day after infestation, 15 days after the end of treatment
  activity compared with benznidazole (50 mg/kg/d), acute phase: activity that is much greater than the benznidazole
Trypanosoma cruzi [4]; 0 days post-treatment, 5 mg/kg orally for 20 days
  Negative parasitemia/number of surviving mice: 7/8
Trypanosoma cruzi [4]; 0 days post-treatment, 5 mg/kg/d subcutaneously for 20 days
  Negative parasitemia/number of surviving mice: 6/8
Trypanosoma cruzi [4]; 10 d post-treatment, 5 mg/kg orally for 20 days
  Negative parasitemia/number of surviving mice: 7/8
Trypanosoma cruzi [4]; 10 d post-treatment, 5 mg/kg/d subcutaneously for 20 days
  Negative parasitemia/number of surviving mice: 7/8
Trypanosoma cruzi [4]; 40 d post-treatment, 5 mg/kg orally for 20 days
  Negative parasitemia/number of surviving mice: 8/8
Trypanosoma cruzi [4]; 40 d post-treatment, 5 mg/kg/d subcutaneously for 20 days
  Negative parasitemia/number of surviving mice: 6/8
Trypanosoma cruzi [4]; 60 d post-treatment, 5 mg/kg orally for 20 days
  Negative parasitemia/number of surviving mice: 8/8
Trypanosoma cruzi [4]; 60 d post-treatment, 5 mg/kg/d subcutaneously for 20 days
  Negative parasitemia/number of surviving mice: 6/8
Trypanosoma cruzi [4]; orally 5 mg/kg/d for 20 days
  eradication of Trypanosoma cruzi from the infected organism, chronic phase: complete eradication of Trypanosoma cruzi from the infected organism
  protection of the mice against death, chronic phase: protects the mice against death
Trypanosoma cruzi [4]; orally 5 mg/kg/d for 20 days from the 108th day after parasitic infection, 79 days after the end of the treatment
  activity compared with benznidazole (50 mg/kg/d), chronic phase: greater activity than benznidazole
